Data reported in ChEMBL document CHEMBL4414664, “An Effective Strategy for Identification of Highly Unstable Bacillaenes” (2019).
Activity calls are given as the source filed them. No cut-off for these calls is given here.

How the values were obtained:
[1] = tested on: Enterococcus faecium; experiment: Antibacterial activity against Enterococcus faecium CCARM 5203 assessed as inhibition zone at 10 mg/ml incubated for 18 hrs by radial diffusion assay; type: functional, organism-based
[2] = tested on: Escherichia coli; experiment: Antibacterial activity against Escherichia coli CCARM 1009 assessed as inhibition zone at 10 mg/ml incubated for 18 hrs by radial diffusion assay; type: functional, organism-based
[3] = tested on: Salmonella typhimurium; experiment: Antibacterial activity against Salmonella typhimurium CCARM 8250 assessed as inhibition zone at 10 mg/ml incubated for 18 hrs by radial diffusion assay; type: functional, organism-based; conditions: Salmonella enterica subsp. enterica serovar Typhimurium
[4] = tested on: Enterococcus faecium; experiment: Antibacterial activity against Enterococcus faecium CCARM 5203 assessed as reduction in bacterial growth at 12.5 ug/ml incubated for 18 hrs by serial dilution method relative to control; type: functional

Compound	inhibition zone (IZ) [1]	inhibition zone (IZ) [2]	inhibition zone (IZ) [3]	growth inhibition (GI) [4]	inhibition of growth at 12.5 µg/mL ([4]; CCARM 5203, 18 h, read-out: GI)
C/C(=C/C=C/C=C/C(C)C(=O)O[C@@H]1O[C@H](CO)[C@@H](O)[C@H](O)[C@H]1O)NC(=O)CC(O)\C(C)=C/C=C\C=C(C)\C=C\C=C/C=C/CNC(=O)C(O)CC(C)C (some centres undefined)	inactive	inactive	inactive	–	–
C/C(=C/C=C/C=C/C(C)C(=O)O)NC(=O)CC(O)\C(C)=C/C=C\C=C(C)\C=C\C=C/CCCNC(=O)C(O)CC(C)C (centres undefined)	–	–	–	Active	–
C/C(=C/C=C/C=C/C(C)C(=O)O)NC(=O)CC(O)\C(C)=C/C=C\C=C(C)\C=C\C=C/C=C/CNC(=O)C(O)CC(C)C (centres undefined)	Active	Active	Active	–	> 80%
C/C(=C/C=C/C=C/C(C)C(=O)O)NC(=O)CC(O)\C(C)=C/C=C\C=C(C)\C=C\C=C/CCCNC(=O)C(CC(C)C)O[C@@H]1O[C@H](CO)[C@@H](O)[C@H](O)[C@H]1O (some centres undefined)	inactive	inactive	inactive	inactive	–
C/C(=C/C=C/C=C/C(C)C(=O)O)NC(=O)CC(O)\C(C)=C/C=C\C=C(C)\C=C\C=C\CCCNC(=O)C(CC(C)C)O[C@@H]1O[C@H](CO)[C@@H](O)[C@H](O)[C@H]1O (some centres undefined)	inactive	inactive	inactive	–	–
C/C(=C/C=C/C=C/C(C)C(=O)O)NC(=O)CC(O)\C(C)=C/C=C\C=C(C)\C=C\C=C/C=C/CNC(=O)C(CC(C)C)O[C@@H]1O[C@H](CO)[C@@H](O)[C@H](O)[C@H]1O (some centres undefined)	inactive	inactive	inactive	inactive	–
